Reference: article PMC8632988, “Inhibition of SYK and cSrc kinases can protect bone and cartilage in preclinical models of osteoarthritis and rheumatoid arthritis” (Scientific Reports, 2021)
“And” between values parts separate entries of the source, which are not always exact repeats. Equal values may be shown once.

Legend:
[1] = tested on: Sprague-Dowley rats, medial meniscal tear (MMT) model; assay: Surgically induced meniscal tear OA in rats; assay type: in vivo, rat; details: day 21
Method: Medial meniscal tear (MMT) model was performed at Pharmenterprises, Russia according to the published procedure[31] and approved by Ethics Committee of Pharmenterprises. Male 4-month old Sprague-Dowley rats were anesthetized with Zoletil (Vibrac, France) and Xylazine (Interchemie werken "De Adelaar" BV, Netherlands) mixture. The medial collateral ligament was transected, and the medial meniscus was grasped with a hemostat and reflected proximally toward the femur. The meniscus was transected and then skin was closed with sutures. 60–90 min after surgery rats were subcutaneously injected with flexoprofen (VIC GROUP, Russia). Treatment groups (20 rats each) were intragastrically treated with MT-SYK-03 (100 and 500 mg/kg) or vehicle control (0.5% methylcellulose solution) 24 h before OA induction and then once daily for 21 day. Active control group was subcutaneously injected with zoledronic acid (0.1 mg/kg) 24 h before OA induction and then once every three days for 21 day. After 21 day animals were sacrificed; surgically operated right knee was removed and used for image analysis.

human osteoclasts = assay: Osteoclast-mediated resorption of the mineralized matrix; assay type: cell-based; parameters: Ratio %: unit not given here; details: for Ratio %: vehicle average = 1.000
Method: The experiment was performed at Atlantic Bone Screen (France) and approved by Atlantic Bone Screen ethics committee. Human CD14 + monocytes were isolated from peripheral blood of healthy volunteers (informed consent was obtained from all subjects) using density gradient centrifugation (Ficoll-Hypaque) and magnetic cell sorting (MACS, MiltenyiBiotec). CD14 + monocytes (1.5 × 10^6 cells/well) were cultured for three days in proliferation medium (αMEM/FCS-10% supplemented with 25 ng/mL M-CSF), inducing proliferation and expression of RANK. Secondly, the cells were differentiated into osteoclasts in differentiation medium supplemented with 100 ng/mL RANKL for 4 days. Osteoclasts were detached from the wells using accutase, the cell suspension was homogenized and cells (75 μL/well) were reseeded into: (a) a 96-well plate coated with a synthetic mineralized matrix for an evaluation of osteoclast resorption, or (b) a classic 96-well plastic culture plate, for an assessment of osteoclast number. 75 μL of differentiation medium containing M-CSF and RANKL (at a 2 × concentration) was added to each well. The cells were incubated for an hour and were cultured for 48 h in the fresh differentiation medium supplemented with MT-SYK-03 or vehicle (DMSO, 0.3%). All treatments were carried out in quadruple. Then the cell medium was removed, cells were lysed and the surface of the resorbed areas of the mineralized matrix was quantified in each well. TRAP staining was performed for cells in a classic plastic plate and the number of mature osteoclasts (TRAP-positive cells with three or more nuclei) was determined in each well. Reconstruction of images and osteoclast count was performed using Nikon NIS-D software.

[2] = 100 mg/kg intragastrically once daily
[3] = 500 mg/kg intragastrically once daily
[4] = MT-SYK-03 0.12 μM, individual wells
[5] = MT-SYK-03 0.37 μM, individual wells
[6] = MT-SYK-03 3.3 μM, individual wells
[7] = MT-SYK-03 10 μM, individual wells

Q: COc1cc(Nc2ncnc(Nc3cc4c(cn3)NC(=O)C(C)(C)O4)n2)cc(OC)c1OC [MT-SYK-03] was tested. Which Lesion area [1, 2] did it give?
A: 37.3 ± 3.3%

Q: And the Lesion depth [1, 2]?
A: 72.5 ± 6.0%

Q: And the Lesion area [1, 3]?
A: 30.5 ± 2.8%

Q: And the Lesion depth [1, 3]?
A: 35.0 ± 3.0% and 35.0 ± 3.0& %

Q: And the Relative resorbed surface (human osteoclasts; 10 μM, 48 h, versus vehicle control)?
A: more than threefold

Q: And the “Ratio resorption/Nb OC” value (human osteoclasts; MT-SYK-03 0.12 μM, Average)?
A: 0.079

Q: And the “Resorption, % resorption” value (human osteoclasts; MT-SYK-03 0.12 μM, Average)?
A: 31.78%

Q: What about the “TRAP, Number of osteoclasts (Nb OC)” value (human osteoclasts; MT-SYK-03 0.12 μM, Average) of the same compound?
A: 405

Q: What about the Ratio % (human osteoclasts; MT-SYK-03 0.12 μM, Average) of the same compound?
A: 1.001

Q: What about the “Ratio resorption/Nb OC” value (human osteoclasts; [4]) of the same compound?
A: 0.088 and 0.075 and 0.085 and 0.067

Q: And the “Resorption, % resorption” value (human osteoclasts; [4])?
A: 34.41% and 30.62% and 34.06% and 28.02%

Q: What about the “TRAP, Number of osteoclasts (Nb OC)” value (human osteoclasts; [4]) of the same compound?
A: 389 and 408 and 402 and 419

Q: What about the “Ratio resorption/Nb OC” value (human osteoclasts; MT-SYK-03 0.37 μM, Average) of the same compound?
A: 0.062

Q: What about the “Resorption, % resorption” value (human osteoclasts; MT-SYK-03 0.37 μM, Average) of the same compound?
A: 26.43%

Q: What about the “TRAP, Number of osteoclasts (Nb OC)” value (human osteoclasts; MT-SYK-03 0.37 μM, Average) of the same compound?
A: 422

Q: What about the Ratio % (human osteoclasts; MT-SYK-03 0.37 μM, Average) of the same compound?
A: 0.789

Q: And the “Ratio resorption/Nb OC” value (human osteoclasts; [5])?
A: 0.084 and 0.065 and 0.069 and 0.031

Q: And the “Resorption, % resorption” value (human osteoclasts; [5])?
A: 33.11% and 27.51% and 32.94% and 12.15%

Q: What about the “TRAP, Number of osteoclasts (Nb OC)” value (human osteoclasts; [5]) of the same compound?
A: 394 and 426 and 478 and 391

Q: What about the “Ratio resorption/Nb OC” value (human osteoclasts; MT-SYK-03 3.3 μM, Average) of the same compound?
A: 0.015

Q: What about the “Resorption, % resorption” value (human osteoclasts; MT-SYK-03 3.3 μM, Average) of the same compound?
A: 2.81%

Q: What about the “TRAP, Number of osteoclasts (Nb OC)” value (human osteoclasts; MT-SYK-03 3.3 μM, Average) of the same compound?
A: 196

Q: And the Ratio % (human osteoclasts; MT-SYK-03 3.3 μM, Average)?
A: 0.197

Q: What about the “Ratio resorption/Nb OC” value (human osteoclasts; [6]) of the same compound?
A: 0.014 and 0.025 and 0.011 and 0.012

Q: And the “Resorption, % resorption” value (human osteoclasts; [6])?
A: 2.31% and 3.40% and 2.62% and 2.91%

Q: And the “TRAP, Number of osteoclasts (Nb OC)” value (human osteoclasts; [6])?
A: 165 and 136 and 247 and 235

Q: And the “Ratio resorption/Nb OC” value (human osteoclasts; MT-SYK-03 10 μM, Average)?
A: 0.004

Q: What about the “Resorption, % resorption” value (human osteoclasts; MT-SYK-03 10 μM, Average) of the same compound?
A: 1.53%

Q: What about the “TRAP, Number of osteoclasts (Nb OC)” value (human osteoclasts; MT-SYK-03 10 μM, Average) of the same compound?
A: 8

Q: And the Ratio % (human osteoclasts; MT-SYK-03 10 μM, Average)?
A: 0.044

Q: And the “Ratio resorption/Nb OC” value (human osteoclasts; [7])?
A: 0.016 and 0.024 and 0.023 and 0.028

Q: What about the “Resorption, % resorption” value (human osteoclasts; [7]) of the same compound?
A: 5.87% and 9.73% and 8.76% and 11.00% and 8.84%

Q: What about the “TRAP, Number of osteoclasts (Nb OC)” value (human osteoclasts; [7]) of the same compound?
A: 371 and 402 and 388 and 390
